Test results taken from patent publication US5750700A, “Certain 1-substituted aminomethyl imidazole and pyrrole derivatives: novel dopamine receptor subtype specific ligands” (Neurogen Corporation, priority 1995, dated 1998).
Where a name gives a salt, the structure may show the parent alone.

Assays:
[1] = target: D2 and D3 receptor (rat striatal homogenates); experiment: D2 and D3 receptor binding activity: displacement of 3H-raclopride in rat striatal homogenates; set-up: species or system adult male Sprague Dawley rats; conditions: 0.5 nM 3H-raclopride, nonspecific binding 10^-4M dopamine
Procedure: Assay for D2 and D3 Receptor Binding Activity Striatial tissue is dissected from adult male Sprague Dawley rats or BHK 293 cells are harvested containing recombinantly produced D2 or D3 receptors. The sample is homogenized in 100 volumes (w/vol) of 0.05M Tris HCl buffer at 4° C. and pH 7.4. The sample is then centrifuged at 30,000×g and resuspended and rehomogenized. The sample is then centrifuged as described and the final tissue sample is frozen until use. The tissue is resuspended 1:20 (wt/vol) in 0.05M Tris HCl buffer containing 100 mM NaCl. […] The binding characteristics of examples of this patent are shown in Table 1 for Rat Striatal Homogenates.

[2] = target: T1, human dopamine D4 receptor subtype (Homo sapiens, UniProt P21917); experiment: D4 receptor binding activity: displacement of [3H] YM-09151-2; conditions: 0.1 nM [3H] YM-09151-2; 60 minutes at 25° C.; clonal cell lines expressing human D4
T1 construct: expressed in transfected cells
T1 sequence (P21917 1-419): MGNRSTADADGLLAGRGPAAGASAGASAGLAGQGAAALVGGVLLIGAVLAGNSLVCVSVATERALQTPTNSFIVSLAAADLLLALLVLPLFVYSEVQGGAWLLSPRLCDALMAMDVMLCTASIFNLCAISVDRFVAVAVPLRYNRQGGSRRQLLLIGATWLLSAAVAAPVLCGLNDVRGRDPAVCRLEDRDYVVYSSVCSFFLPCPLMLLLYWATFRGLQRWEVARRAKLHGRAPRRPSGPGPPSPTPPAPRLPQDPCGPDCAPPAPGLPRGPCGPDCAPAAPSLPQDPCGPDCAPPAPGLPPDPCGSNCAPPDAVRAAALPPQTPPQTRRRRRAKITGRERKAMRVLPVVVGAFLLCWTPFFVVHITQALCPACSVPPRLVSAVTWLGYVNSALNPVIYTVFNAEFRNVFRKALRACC
Procedure: Assay for D4 Receptor Binding Activity
Clonal cell lines expressing the human dopamine D4 receptor subtype were harvested in PBS and the cells centrifuged and the pellets stored at -80° C. until used in the binding assay. The pellets were resuspended and the cells lysed at 4° C. in 50 mM Tris pH 7.4 buffer containing 120 mM NaCl, 2 mM EDTA and 5 mM mMgCl2. The homogenate is centrifuged at 48000×g for 10 minutes at 4° C. The resulting pellet is resuspended in fresh buffer and centrifuged again. After resuspension of the pellet in fresh buffer at 100 ul aliquot removed for the protein determination. The remaining homogenate is centrifuged as above, the supernatant removed and the pellet stored at 4° C. until needed at which time it is resuspended to a final concentration of 625 ug/ml (250 ug per sample) with 50 mM Tris buffer (pH 7.4) and 120 mM NaCl just prior to use. Incubations were carried out for 60 minutes at 25° C. in the presence of 0.1 nM [^3 H] YM-09151-2. The incubation was terminated by rapid filtration through Whatman GF/C filters and rinsed with 2×4 ml washes of chilled 50 mM Tris (pH 7.4) and 120 mM NaCl. Nonspecific binding was determined with 1 uM spiperone and radioactivity determined by counting in an LKB beta counter. Binding parameters were determined by non-linear least squares regression analysis, from which the inhibition constant Ki could be calculated for each test compound. The binding characteristics of some examples of this patent are shown in Table 2 for the dopamine D4 binding assay. […] YM-09151-2 from the human dopamine D4 receptor subtype of below […].

| IC50 [1] [nM] | Ki [2] [nM] | Compound |
| --- | --- | --- |
| 142 | 3 | c1ccc(CC2CCN(Cc3cn(-c4ccccc4)cn3)CC2)cc1 [Compound 1, 1-phenyl-4[(4-benzyl-piperidin-1-yl)-methyl]imidazole] |
| 3 | 10 | c1ccc(C2CCN(Cc3cn(-c4ccccc4)cn3)CC2)cc1 [Compound 2, 1-Phenyl-4[(4-phenyl-piperidin-1-yl)methyl]imidazole dihydrochloride] |
| 6 | 2 | c1ccc(N2CCN(Cc3cn(-c4ccccc4)cn3)CC2)cc1 [Compound 3, 1-Phenyl-4[(4-phenyl-piperazin-1-yl)methyl]imidazole dihydrochloride] |
| 194 | 3 | Fc1ccc(N2CCN(Cc3cn(-c4ccccc4)cn3)CC2)cc1 [Compound 6, 1-Phenyl-4[(4-(4-fluorophenyl)-piperazin-1-yl)methyl]imidazole dihydrochloride] |
